Consider twelve compounds from PubChem BioAssay (NCI).

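How tested: cells in 96-well plates exposed to compound for 48 hours at five concentrations. GI50 marks 50% less growth. TGI: concentration producing complete growth inhibition.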 A value given as a limit tells only on which side of the number the result lay.

Among the test systems are SF-539 CNS; RPMI-8226 leukemia; COLO 205 colon; IGROV1 ovarian; OVCAR-4 ovarian; NCI-H522 lung; SF-295 CNS; OVCAR-3 ovarian; RXF 393 renal; HCC-2998 colon.
Common to all, as to experiment: NCI tumour cell line growth inhibition, 48 h

Regarding `C#CCN(Cc1nc2cc(C(F)(F)F)ccc2nc1-c1ccccc1)c1ccc(F)cc1`, the GI50 in the assay with SF-539 CNS is 37.4 µM; in the assay on RPMI-8226 leukemia, 23.3 µM; in the assay with COLO 205 colon, 13.8 µM; with IGROV1 ovarian it was 23.1 µM; with OVCAR-4 ovarian, 33.4 µM; in the assay on NCI-H522 lung it was 22.4 µM. In addition, the values for the GI50 with SF-295 CNS, in the assay on OVCAR-3 ovarian and in the assay on RXF 393 renal were 51.4 µM, 29.8 µM and 41 µM, respectively. The TGI was more than 100 µM with SF-539 CNS; 68.7 µM in the assay with RPMI-8226 leukemia; 50.5 µM in the assay on COLO 205 colon; more than 100 µM in the assay on IGROV1 ovarian; more than 100 µM with OVCAR-4 ovarian; more than 100 µM with NCI-H522 lung. Also, the TGI in the assay with SF-295 CNS, with OVCAR-3 ovarian and in the assay with RXF 393 renal was more than 100 µM in each case.

As for `COc1ccc(/C=C2\CCc3ccccc3C2=O)cc1OC`, the TGI in the assay on SF-539 CNS was 65.9 µM; in the assay on RPMI-8226 leukemia, 64.8 µM; with COLO 205 colon, 47.2 µM; in the assay with HCC-2998 colon, more than 100 µM; in the assay with IGROV1 ovarian, more than 100 µM; with OVCAR-4 ovarian, 79.6 µM. The TGI with NCI-H522 lung was 47 µM; with SF-295 CNS, 95.9 µM; in the assay on OVCAR-3 ovarian, more than 100 µM.

For the compound `COC(=O)c1ccc(/C=C/S(=O)(=O)c2ccccc2)cc1`, the TGI with SF-539 CNS, with RPMI-8226 leukemia, with COLO 205 colon, with IGROV1 ovarian, in the assay with OVCAR-4 ovarian and in the assay on NCI-H522 lung was more than 100 µM each time. Moreover, the TGI in the assay with SF-295 CNS, with OVCAR-3 ovarian and in the assay with RXF 393 renal was more than 100 µM throughout.

In the case of `COC(=O)C1=C(O)c2cc3c(cc2[C@H](c2cc(OC)c(OC)c(OC)c2)C1)OCO3`, the TGI in the assay on SF-539 CNS is more than 100 µM; with RPMI-8226 leukemia it was more than 100 µM; in the assay with COLO 205 colon, 34.7 µM; with IGROV1 ovarian it was 89.4 µM; with OVCAR-4 ovarian, more than 100 µM; in the assay on SF-295 CNS it was more than 100 µM. Also, the TGI in the assay with OVCAR-3 ovarian is 55.7 µM; with RXF 393 renal it was more than 100 µM.

On to `Cc1ccc(-c2cc(=O)c3cc(C)c(C)c(C(=O)O)c3o2)cc1[N+](=O)[O-]`, for which the TGI in the assay with SF-539 CNS, with RPMI-8226 leukemia, in the assay with COLO 205 colon, with IGROV1 ovarian, with OVCAR-4 ovarian and in the assay on NCI-H522 lung was more than 100 µM each time. The TGI in the assay on SF-295 CNS, in the assay on OVCAR-3 ovarian and in the assay with RXF 393 renal was more than 100 µM each time.

For the compound `O=c1c(-c2nc3ccccc3[nH]2)cc2ccccc2n1Cc1cn(Cc2ccccc2Cl)nn1`, the GI50 with SF-539 CNS is 1.78 µM; with RPMI-8226 leukemia, 3.02 µM; in the assay on HCC-2998 colon, 4.19 µM; in the assay on OVCAR-4 ovarian it was 1.72 µM; in the assay on NCI-H522 lung it was 2.24 µM; in the assay on OVCAR-3 ovarian it was 2.01 µM. For the same compound, the TGI in the assay on SF-539 CNS was determined as 3.66 µM; in the assay with RPMI-8226 leukemia, 10.8 µM; in the assay on HCC-2998 colon, 37.4 µM; with OVCAR-4 ovarian, 3.44 µM; with NCI-H522 lung, 7.98 µM; with OVCAR-3 ovarian it was 4.17 µM.

On to `COc1ccc2c(c1OC)C(C=C(c1ccccc1)c1ccccc1)CN(C)C2` (stereo not given), for which the TGI in the assay on SF-539 CNS is 56.6 µM; in the assay on RPMI-8226 leukemia, 50.8 µM; in the assay with COLO 205 colon, 28.5 µM; in the assay on HCC-2998 colon, 67.1 µM; in the assay with IGROV1 ovarian it was 43.5 µM; in the assay with OVCAR-4 ovarian, more than 100 µM. In addition, the TGI amounted to 41.5 µM with NCI-H522 lung, 80.3 µM in the assay on SF-295 CNS and 59.9 µM in the assay on OVCAR-3 ovarian.

Take `C/C(=N\NS(=O)(=O)c1c(C)cc(C)cc1C)c1ccc[n+]([O-])n1`: the TGI in the assay on SF-539 CNS was 27.7 µM; in the assay on RPMI-8226 leukemia, 31.4 µM; in the assay on HCC-2998 colon it was more than 100 µM; in the assay with IGROV1 ovarian it was 99.2 µM; with OVCAR-4 ovarian, 44.6 µM; in the assay with NCI-H522 lung it was 21 µM. Moreover, the figures for the TGI in the assay with SF-295 CNS and in the assay on OVCAR-3 ovarian were more than 100 µM and 25.3 µM, respectively.

As to `COc1c(N2CCN(CN3C(=O)C(=O)c4ccccc43)C(C)C2)c(F)cc2c(=O)c(C(=O)O)cn(C3CC3)c12` (stereo not given), the GI50 in the assay with SF-539 CNS is more than 100 µM; in the assay with RPMI-8226 leukemia, 78.7 µM; in the assay with COLO 205 colon, 66.5 µM; in the assay with IGROV1 ovarian it was more than 100 µM; in the assay on OVCAR-4 ovarian it was more than 100 µM; in the assay with NCI-H522 lung, more than 100 µM. The GI50 in the assay with SF-295 CNS was more than 100 µM; in the assay on OVCAR-3 ovarian, 98.7 µM; in the assay on RXF 393 renal, more than 100 µM. Further, the TGI with SF-539 CNS, in the assay on RPMI-8226 leukemia, in the assay with COLO 205 colon, in the assay with IGROV1 ovarian, with OVCAR-4 ovarian and in the assay on NCI-H522 lung was more than 100 µM each time. The TGI in the assay on SF-295 CNS, in the assay on OVCAR-3 ovarian and with RXF 393 renal was more than 100 µM each time.

`CN[C@H]1CC[C@]23C[C@]24CC[C@]2(C)[C@@H]([C@H](C)N(C)C)CC[C@@]2(C)[C@@H]4CC[C@H]3C1(C)C`: the TGI in the assay on SF-539 CNS came to 26.7 µM; in the assay with RPMI-8226 leukemia, 31.3 µM; in the assay with COLO 205 colon it was 25.2 µM; in the assay with HCC-2998 colon, 28.7 µM; with IGROV1 ovarian, 35.1 µM; with OVCAR-4 ovarian, 53.7 µM. Besides, the TGI in the assay with NCI-H522 lung was determined as 34.1 µM; in the assay on SF-295 CNS it was 31.2 µM; with OVCAR-3 ovarian it was 33.6 µM.

As to `N#CC(C(=O)O)C(c1c(Cl)cccc1Cl)C(C#N)C(=O)O` (stereo not given), the TGI in the assay with SF-539 CNS, in the assay on RPMI-8226 leukemia, in the assay on COLO 205 colon, in the assay on IGROV1 ovarian, with OVCAR-4 ovarian and in the assay with NCI-H522 lung was more than 100 µM throughout. Moreover, the TGI with SF-295 CNS and in the assay on OVCAR-3 ovarian was more than 100 µM in each case.

For `COC(=O)[C@H](Cc1cn(C)cn1)NC(=O)[C@@H](NC(=O)Nc1cc(C(F)(F)F)cc(C(F)(F)F)c1)C(C)(C)C`, the GI50 in the assay on SF-539 CNS, with RPMI-8226 leukemia, with COLO 205 colon, in the assay on HCC-2998 colon, with IGROV1 ovarian and in the assay with OVCAR-4 ovarian was more than 10 µM each time. Further, the GI50 with SF-295 CNS, in the assay with OVCAR-3 ovarian and with RXF 393 renal was more than 10 µM throughout. Besides, the TGI in the assay with SF-539 CNS, in the assay with RPMI-8226 leukemia, in the assay with COLO 205 colon, in the assay with HCC-2998 colon, in the assay on IGROV1 ovarian and with OVCAR-4 ovarian was more than 10 µM each time. Moreover, the TGI with SF-295 CNS, in the assay on OVCAR-3 ovarian and with RXF 393 renal was more than 10 µM throughout.
